Test results reported in patent publication US7674795B2, “Fluorene derivatives, composition containing said derivatives and the use thereof” (Aventis Pharma SA, priority 2005, dated 2010).
Counter-ions that a name gives are not always drawn. Like-named read-outs stand apart in the source and are kept apart here.

Target: Hsp82 (Saccharomyces cerevisiae, UniProt P02829)
Test: PK/LDH enzyme coupling test of the ATPase activity of Hsp82 (NADH decrease at 340 nm)
Assay type: biochemical
Conditions: 1 μM Hsp82, 250 μM ATP, 37° C., pyruvate kinase/lactate dehydrogenase coupling
Procedure, shortened: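 Yeast Hsp82 ATPase was coupled to PK/LDH, with ADP formation followed continuously as NADH loss at 340 nm at 37 °C. The mixture was preincubated 30 min at 37 °C, and the reaction was started with compound at variable concentrations plus Hsp82 at 1 μM. Initial rates (μM ADP/min) came from the tangent slope at origin, expressed as % inhibition.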

Hsp82, sequence (P02829 whole entry): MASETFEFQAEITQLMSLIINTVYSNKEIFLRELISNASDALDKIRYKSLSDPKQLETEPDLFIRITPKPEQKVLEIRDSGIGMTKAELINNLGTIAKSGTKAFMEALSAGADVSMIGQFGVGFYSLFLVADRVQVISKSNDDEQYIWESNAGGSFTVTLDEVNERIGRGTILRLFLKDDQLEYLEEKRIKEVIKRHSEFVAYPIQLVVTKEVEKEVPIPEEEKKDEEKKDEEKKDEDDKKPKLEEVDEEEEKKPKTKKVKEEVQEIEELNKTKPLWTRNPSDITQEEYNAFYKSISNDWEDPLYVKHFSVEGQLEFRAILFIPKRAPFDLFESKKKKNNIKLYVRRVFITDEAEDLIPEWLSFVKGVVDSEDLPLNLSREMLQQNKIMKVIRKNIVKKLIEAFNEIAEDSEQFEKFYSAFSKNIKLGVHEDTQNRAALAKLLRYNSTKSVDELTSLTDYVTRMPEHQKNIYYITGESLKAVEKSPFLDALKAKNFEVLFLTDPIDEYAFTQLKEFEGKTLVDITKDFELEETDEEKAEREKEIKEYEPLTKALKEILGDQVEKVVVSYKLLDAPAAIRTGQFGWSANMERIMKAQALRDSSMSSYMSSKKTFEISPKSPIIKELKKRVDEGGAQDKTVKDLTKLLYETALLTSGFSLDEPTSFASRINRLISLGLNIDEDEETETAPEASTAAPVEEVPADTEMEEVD

| SMILES | IC50 (read-out: Hsp82 ATPase IC50) [µM] | IC50 (Hsp82 ATPase IC50 μM) [µM] |
| --- | --- | --- |
| ON=C1c2ccccc2-c2c1cccc2-c1nc2ccccc2[nH]1 (racemic) [Example 68, 4-(1H-benzimidazol-2-yl)-fluoren-9-one oxime (Z,E)] | 10 to 100 | – |
| O/N=C1\c2ccccc2-c2c1cccc2-c1nc2cnccc2[nH]1 [Example 19, 4-(3H-imidazo[4,5-c]pyridin-2-yl)-fluoren-9-one oxime (Z)] | 1 to 10 | – |
| CC(C)(C)OC(=O)N[C@H](CC(=O)NC1c2ccccc2-c2c(-c3nc4cnccc4[nH]3)cccc21)C(N)=O (stereo partly drawn) [Example 59, tert-butyl ester of {(R)-1-carbamoyl-2-[4-(3H-imidazo[4,5-c]pyridin-2-yl)-9H-fluoren-9(R,S)-ylcarbamoyl]-ethyl}-carbamoic acid] | 1 to 10 | – |
| NC1c2ccccc2-c2c(-c3nc4cnccc4[nH]3)cccc21 (racemic) [Example 6, 4-(3H-imidazo[4,5-c]pyridin-2-yl)-9H-fluorene-9(R,S)-amine] | 10 to 100 | – |
| c1ccc2c(c1)-c1c(-c3nc4ccncc4[nH]3)cccc1C2NCc1cccc2ncccc12 (racemic) [Example 26, trifluoroacetate of N-[4-(3H-imidazo[4,5-c]pyridin-2-yl)-9H-fluoren-9(R,S)-yl]-quinolin-5-yl-methylamine] | 1 to 10 | – |
| O=C(OC1c2ccccc2-c2c(-c3nc4ccncc4[nH]3)cccc21)c1ccncc1 (racemic) [Example 122, 4-(3H-imidazo[4,5-c]pyridin-2-yl)-9H-fluoren-9(R,S)-yl ester of isonicotinic acid] | < 1 | – |
| c1ccc2c(c1)-c1c(-c3nc4cnccc4[nH]3)cccc1C2NCc1ccc2[nH]ccc2c1 (racemic) [Example 18, N-[4-(3H-imidazo[4,5-c]pyridin-2-yl)-9H-fluoren-9(R,S)-yl]-(1H-indol-5-ylmethyl)-amine] | 10 to 100 | – |
| O=C1CCc2c1cccc2C(=O)NC1c2ccccc2-c2c(-c3nc4cnccc4[nH]3)cccc21 (racemic) [Example 60, [4-(3H-imidazo[4,5-c]pyridin-2-yl)-9H-fluoren-9(R,S)-yl]amide of 1-oxo-indan-4-carboxylic acid] | 1 to 10 | – |
| ON=C1c2ccccc2-c2c1cccc2-c1nc2cnccc2[nH]1 (mixture of isomers) [Example 5, 4-(3H-imidazo[4,5-c]pyridin-2-yl)-fluoren-9-one oxime (Z, E)] | 1 to 10 | – |
| O=C1c2ccccc2-c2c1cccc2-c1nc2ccc(F)cc2[nH]1 [Example 69, 4-(6-fluoro-1H-benzimidazol-2-yl)-fluoren-9-one] | 10 to 100 | – |
| O=C(NC1c2ccccc2-c2c(-c3nc4cccnc4[nH]3)cccc21)c1ccncc1 (racemic) [Example 110, N-[4-(3H-imidazo[4,5-b]pyridin-2-yl)-9H-fluoren-9(R,S)-yl]-isonicotinamide] | 10 to 100 | – |
| NC(=O)NC1c2ccccc2-c2c(-c3nc4ccncc4[nH]3)cccc21 (racemic) [Example 28, [4-(3H-imidazo[4,5-c]pyridin-2-yl)-9H-fluoren-9(R,S)-yl]-urea trifluoroacetate] | – | 10 to 100 |
| OC=C1c2ccccc2-c2c1cccc2-c1nc2cnccc2[nH]1 (mixture of isomers) [Example 13, [4-(1H-imidazo[4,5-c]pyridin-2-yl)-fluoren-(9)-ylidene]-methanol, equimolecular mixture of the Z and E isomers] | 10 to 100 | – |
| c1ccc2c(c1)-c1c(-c3nc4cnccc4[nH]3)cccc1C2NCc1ccc2cc[nH]c2c1 (racemic) [Example 22, N-[4-(3H-imidazo[4,5-c]pyridin-2-yl)-9H-fluoren-9(R,S)-yl]-(1H-indol-6-ylmethyl)-amine] | 10 to 100 | – |
| FC1c2ccccc2-c2c(-c3nc4cnccc4[nH]3)cccc21 (racemic) [Example 10, 2-[9(R,S)-fluoro-9H-fluoren-4-yl]-1H-imidazo[4,5-c]pyridine] | 1 to 10 | – |
| NC(=O)c1cccc(C(=O)NC2c3ccccc3-c3c(-c4nc5ccncc5[nH]4)cccc32)c1 (racemic) [Example 126, N-[4-(3H-imidazo[4,5-c]pyridin-2-yl)-9H-fluoren-9(R,S)-yl]isophthalamide] | 1 to 10 | – |
| c1ccc2c(c1)Cc1cccc(-c3nc4cnccc4[nH]3)c1-2 [Example 7, 2-(9H-fluoren-4-yl)-3H-imidazo[4,5-c]pyridine] | 10 to 100 | – |
| O=C(NC1c2ccccc2-c2c(-c3nc4cnccc4[nH]3)cccc21)c1ccc[n+]([O-])c1 (racemic) [Example 56, N-[4-(3H-imidazo[4,5-c]pyridin-2-yl)-9H-fluoren-9(R,S)-yl]-1-oxynicotinamide] | 1 to 10 | – |
| NC(=O)[C@H](N)CC(=O)NC1c2ccccc2-c2c(-c3nc4cnccc4[nH]3)cccc21 (mixture of isomers) [Example 62, (R)-2-amino-N4-[4-(3H-imidazo[4,5-c]pyridin-2-yl)-9H-fluoren-9(R,S)-yl]-succinamide] | 1 to 10 | – |
| O=C(NC1c2ccccc2-c2c(-c3nc4ccncc4[nH]3)cccc21)c1cc(N2CCCCC2)nc2ccccc12 (racemic) [Example 119, [4-(3H-imidazo[4,5-c]pyridin-2-yl)-9H-fluoren-9(R,S)-yl]amide of 2-piperidin-1-yl-quinoline-4-carboxylic acid] | 1 to 10 | – |

Second part, led by results:

| IC50 (read-out: Hsp82 ATPase IC50) [µM] | SMILES | IC50 (Hsp82 ATPase IC50 μM) [µM] |
| --- | --- | --- |
| < 1 | Nc1cc(C(=O)NC2c3ccccc3-c3c(-c4nc5ccncc5[nH]4)cccc32)ccn1 (racemic) [Example 73, 2-amino-N-[4-(3H-imidazo[4,5-c]pyridin-2-yl)-9H-fluoren-9(R,S)-yl]-isonicotinamide] | – |
| 10 to 100 | O=C(NC1c2ccccc2-c2c(-c3nc4ccncc4[nH]3)cccc21)C1CCOCC1 (racemic) [Example 32, [4-(3H-imidazo[4,5-c]pyridin-2-yl)-9H-fluoren-9(R,S)-yl]amide of tetrahydropyran-4-carboxylic acid] | – |
| 1 to 10 | O=C(NC1c2ccccc2-c2c(-c3nc4ccncc4[nH]3)cccc21)c1ccnc(O)n1 (stereo not drawn) [Example 89, [4-(3H-imidazo[4,5-c]pyridin-2-yl)-9H-fluoren-9-yl]amide of 2-hydroxypyrimidine-4-carboxylic acid] | – |
| 1 to 10 | Cc1ccc2c(C(=O)NC3c4ccccc4-c4c(-c5nc6ccncc6[nH]5)cccc43)cccc2n1 (stereo not drawn) [Example 90, [4-(3H-imidazo[4,5-c]pyridin-2-yl)-9H-fluoren-9-yl]amide of 2-methyl-quinoline-5-carboxylic acid] | – |
| 10 to 100 | O=C(NC1c2ccccc2-c2c(-c3nc4ccncc4[nH]3)cccc21)c1cccc2cnccc12 (racemic) [Example 35, [4-(3H-imidazo[4,5-c]pyridin-2-yl)-9H-fluoren-9(R,S)-yl]amide of isoquinoline-5-carboxylic acid] | – |
| < 1 | Nc1cnccc1C(=O)NC1c2ccccc2-c2c(-c3nc4ccncc4[nH]3)cccc21 (racemic) [Example 104, 3-amino-N-[4-(3H-imidazo[4,5-c]pyridin-2-yl)-9H-fluoren-9(R,S)-yl]-isonicotinamide] | – |
| 1 to 10 | O=C(NC1c2ccccc2-c2c(-c3nc4ccncc4[nH]3)cccc21)c1ccnc(CO)c1 (racemic) [Example 94, 2-hydroxymethyl-N-[4-(3H-imidazo[4,5-c]pyridin-2-yl)-9H-fluoren-9(R,S)-yl]-isonicotinamide] | – |
| < 1 | O=C(NC1c2ccccc2-c2c(-c3nc4ccncc4[nH]3)cccc21)c1ccnc(Br)c1 (racemic) [Example 102, 2-bromo-N-[4-(3H-imidazo[4,5-c]pyridin-2-yl)-9H-fluoren-9(R,S)-yl]-isonicotinamide] | – |
| 1 to 10 | O=C(NC1c2ccccc2-c2c(-c3nc4ccncc4[nH]3)cccc21)c1cccc(O)c1 (racemic) [Example 50, hydrochloride of 3-hydroxy-N-[4-(3H-imidazo[4,5-c]pyridin-2-yl)-9H-fluoren-9(R,S)-yl]-benzamide] | – |
| 1 to 10 | O=C(Cc1n[nH]c(S)n1)NC1c2ccccc2-c2c(-c3nc4ccncc4[nH]3)cccc21 (racemic) [Example 42, N-[4-(3H-imidazo[4,5-c]pyridin-2-yl)-9H-fluoren-9(R,S)-yl]-2-(5-mercapto-4H-1,2,4-triazol-3-yl)-acetamide trifluoroacetate] | – |
| < 1 | O=C(NC1c2ccccc2-c2c(-c3nc4ccncc4[nH]3)cccc21)c1ccc2[nH]nnc2c1 (racemic) [Example 41, [4-(3H-imidazo[4,5-c]pyridin-2-yl)-9H-fluoren-9(R,S)-yl]amide trifluoroacetate of 1H-benzotriazole-5-carboxylic acid] | – |
| 1 to 10 | O=C(NC1c2ccccc2-c2c(-c3nc4ccncc4[nH]3)cccc21)c1ccnc(Cl)c1 (racemic) [Example 87, 2-chloro-N-[4-(3H-imidazo[4,5-c]pyridin-2-yl)-9H-fluoren-9(R,S)-yl]-isonicotinamide] | – |
| 1 to 10 | O=C(NC1c2ccccc2-c2c(-c3nc4ccncc4[nH]3)cccc21)C(=O)c1ccoc1 (racemic) [Example 36, 2-furan-3-yl-N-[4-(3H-imidazo[4,5-c]pyridin-2-yl)-9H-fluoren-9(R,S)-yl]-2-oxo-acetamide] | – |
| 10 to 100 | O=CNC1c2ccccc2-c2c(-c3nc4cnccc4[nH]3)cccc21 (racemic) [Example 12, N-[4-(3H-imidazo[4,5-c]pyridin-2-yl)-9H-fluoren-9(R,S)-yl]-formamide] | – |
| 1 to 10 | O=C(NC1c2ccccc2-c2c(-c3nc4ccncc4[nH]3)cccc21)c1cc[n+]([O-])cc1 (racemic) [Example 81, N-[4-(3H-imidazo[4,5-c]pyridin-2-yl)-9H-fluoren-9(R,S)-yl]-1-oxyisonicotinamide] | – |
| 10 to 100 | Cc1noc(C)c1NC(=O)NC1c2ccccc2-c2c(-c3nc4ccncc4[nH]3)cccc21 (racemic) [Example 76, 1-(3,5-dimethyl-isoxazol-4-yl)-3-[4-(3H-imidazo[4,5-c]pyridin-2-yl)-9H-fluoren-9(R,S)-yl]-urea] | – |
